Test results as given in article PMC10408569, “Recruitment of hexahydroquinoline as anticancer scaffold targeting inhibition of wild and mutants EGFR (EGFR^WT, EGFR^T790M, and EGFR^L858R)” (Journal of Enzyme Inhibition and Medicinal Chemistry, 2023).

Columns and labels:
[1] = system: NCI 60 cancer cell lines; assay: NCI-60 anticancer screening (SRB), whole panel; type: cell-based, human; conditions: mean across the NCI-60 panel; one dose 10 μM
[2] = system: SW-620; assay: NCI-60 anticancer screening (SRB); type: cell-based; conditions: Homo sapiens; SW-620, colon cancer; one dose 10 μM; read-out: Growth Inhibition Percentage (GI %)
[3] = system: SF-539; assay: NCI-60 anticancer screening (SRB); type: cell-based; conditions: Homo sapiens; SF-539, CNS cancer; one dose 10 μM; read-out: Growth Inhibition Percentage (GI %)
[4] = system: T-47D; assay: NCI-60 anticancer screening (SRB); type: cell-based; conditions: Homo sapiens, T47D, breast cancer, one dose 10 μM, read-out: Growth Inhibition Percentage (GI %)
[5] = system: OVCAR-5; assay: NCI-60 anticancer screening (SRB); type: cell-based; conditions: Homo sapiens; OVCAR-5, ovarian cancer; one dose 10 μM; read-out: Growth Inhibition Percentage (GI %)
[6] = molecular target: EGFR^WT (Homo sapiens, UniProt P00533); assay: EGFR kinase inhibitory assay (HTRF)
Sequence of EGFR^WT (P00533 25-1210): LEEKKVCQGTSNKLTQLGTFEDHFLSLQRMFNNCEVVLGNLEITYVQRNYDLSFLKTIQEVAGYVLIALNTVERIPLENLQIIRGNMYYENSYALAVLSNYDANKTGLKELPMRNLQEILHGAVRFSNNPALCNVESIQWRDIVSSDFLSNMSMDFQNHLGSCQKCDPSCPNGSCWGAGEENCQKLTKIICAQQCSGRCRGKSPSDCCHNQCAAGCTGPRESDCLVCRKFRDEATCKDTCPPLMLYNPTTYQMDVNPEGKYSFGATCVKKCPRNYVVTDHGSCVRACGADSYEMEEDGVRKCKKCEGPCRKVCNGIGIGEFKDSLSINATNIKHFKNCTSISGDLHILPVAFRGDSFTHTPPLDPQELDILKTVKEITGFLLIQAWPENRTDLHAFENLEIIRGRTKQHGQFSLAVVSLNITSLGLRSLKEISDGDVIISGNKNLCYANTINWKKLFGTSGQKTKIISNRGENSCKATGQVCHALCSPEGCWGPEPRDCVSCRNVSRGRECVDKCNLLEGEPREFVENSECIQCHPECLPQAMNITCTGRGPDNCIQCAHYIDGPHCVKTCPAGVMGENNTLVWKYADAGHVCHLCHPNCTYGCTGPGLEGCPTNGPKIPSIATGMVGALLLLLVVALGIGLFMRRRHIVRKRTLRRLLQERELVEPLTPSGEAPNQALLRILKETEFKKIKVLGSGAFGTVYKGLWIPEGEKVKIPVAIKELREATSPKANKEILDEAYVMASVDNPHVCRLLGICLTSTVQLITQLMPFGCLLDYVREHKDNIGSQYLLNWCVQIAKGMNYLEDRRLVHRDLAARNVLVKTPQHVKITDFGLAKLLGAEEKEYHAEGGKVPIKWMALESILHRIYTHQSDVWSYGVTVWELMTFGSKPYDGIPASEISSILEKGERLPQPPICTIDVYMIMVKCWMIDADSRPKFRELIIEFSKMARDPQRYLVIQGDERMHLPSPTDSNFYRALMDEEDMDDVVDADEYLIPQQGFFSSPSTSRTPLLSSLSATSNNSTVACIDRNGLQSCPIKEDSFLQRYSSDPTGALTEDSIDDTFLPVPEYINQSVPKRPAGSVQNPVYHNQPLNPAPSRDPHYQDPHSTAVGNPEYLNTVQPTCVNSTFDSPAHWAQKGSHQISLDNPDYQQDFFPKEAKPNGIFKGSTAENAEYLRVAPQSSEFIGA

[7] = system: NCI-H322M; assay: NCI-60 anticancer screening (SRB); type: cell-based; conditions: Homo sapiens, NSC lung cancer, one dose 10 μM, read-out: Growth Inhibition Percentage (GI %)
[8] = system: KM 12; assay: NCI-60 anticancer screening (SRB); type: cell-based; conditions: Homo sapiens, KM12; KM 12, colon cancer; one dose 10 μM; read-out: Growth Inhibition Percentage (GI %)
[9] = system: NCI-H460; assay: NCI-60 anticancer screening (SRB); type: cell-based; conditions: Homo sapiens; NCI-H460, NSC lung cancer; one dose 10 μM; read-out: Growth Inhibition Percentage (GI %)
[10] = system: SN 12C; assay: NCI-60 anticancer screening (SRB); type: cell-based; conditions: Homo sapiens, SN12C; SN 12C, renal cancer; one dose 10 μM; read-out: Growth Inhibition Percentage (GI %)
[11] = system: MDA-MB-231; assay: NCI-60 anticancer screening (SRB); type: cell-based; conditions: Homo sapiens; MDA-MB-231, breast cancer; one dose 10 μM; read-out: Growth Inhibition Percentage (GI %)
[12] = system: RXF 393; assay: NCI-60 anticancer screening (SRB); type: cell-based; conditions: Homo sapiens; RXF 393, renal cancer; one dose 10 μM; read-out: Growth Inhibition Percentage (GI %)
[13] = system: RPMI-8226; assay: NCI-60 anticancer screening (SRB); type: cell-based; conditions: Homo sapiens; RPMI-8226, leukemia; one dose 10 μM; read-out: Growth Inhibition Percentage (GI %)
[14] = molecular target: EGFR^L858R (Homo sapiens, UniProt P00533, L858R); assay: biochemical
Sequence of EGFR^L858R (P00533 25-1210 L858R): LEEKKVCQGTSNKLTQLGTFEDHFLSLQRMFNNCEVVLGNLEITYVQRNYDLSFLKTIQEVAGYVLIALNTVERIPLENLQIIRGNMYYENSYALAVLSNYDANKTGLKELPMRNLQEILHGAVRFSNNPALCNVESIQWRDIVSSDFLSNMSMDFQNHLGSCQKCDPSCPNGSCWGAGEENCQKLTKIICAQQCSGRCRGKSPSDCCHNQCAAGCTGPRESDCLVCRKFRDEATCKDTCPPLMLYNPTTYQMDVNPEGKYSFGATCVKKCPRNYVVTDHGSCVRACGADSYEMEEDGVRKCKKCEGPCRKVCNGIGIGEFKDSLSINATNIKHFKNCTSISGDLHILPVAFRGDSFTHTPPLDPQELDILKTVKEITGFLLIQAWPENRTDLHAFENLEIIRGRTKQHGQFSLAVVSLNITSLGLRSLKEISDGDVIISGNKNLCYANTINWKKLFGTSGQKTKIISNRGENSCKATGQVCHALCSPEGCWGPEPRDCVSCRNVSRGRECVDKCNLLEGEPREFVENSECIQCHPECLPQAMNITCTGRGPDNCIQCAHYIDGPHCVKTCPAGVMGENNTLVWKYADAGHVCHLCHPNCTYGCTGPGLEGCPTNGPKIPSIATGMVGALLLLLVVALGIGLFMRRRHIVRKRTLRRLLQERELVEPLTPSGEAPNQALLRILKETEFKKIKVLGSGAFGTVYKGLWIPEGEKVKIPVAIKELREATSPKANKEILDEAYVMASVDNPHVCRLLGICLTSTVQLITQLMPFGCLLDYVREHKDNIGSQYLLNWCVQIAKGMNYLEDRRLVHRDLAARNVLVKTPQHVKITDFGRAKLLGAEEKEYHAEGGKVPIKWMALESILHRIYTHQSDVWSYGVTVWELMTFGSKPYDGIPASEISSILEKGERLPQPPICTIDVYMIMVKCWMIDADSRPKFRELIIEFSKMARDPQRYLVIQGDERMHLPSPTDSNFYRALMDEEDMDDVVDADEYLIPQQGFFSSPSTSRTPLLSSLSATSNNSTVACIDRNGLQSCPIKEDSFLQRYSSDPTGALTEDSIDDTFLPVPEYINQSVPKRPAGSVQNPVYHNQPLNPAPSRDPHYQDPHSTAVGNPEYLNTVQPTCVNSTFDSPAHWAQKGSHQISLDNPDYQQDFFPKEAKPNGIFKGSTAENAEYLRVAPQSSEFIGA

[15] = system: HCT-116; assay: NCI-60 anticancer screening (SRB); type: cell-based; conditions: Homo sapiens; HCT-116, colon cancer; one dose 10 μM; read-out: Growth Inhibition Percentage (GI %)
[16] = system: SK-MEL-5; assay: NCI-60 anticancer screening (SRB); type: cell-based; conditions: Homo sapiens; SK-MEL-5, melanoma; one dose 10 μM; read-out: Growth Inhibition Percentage (GI %)
[17] = system: SR; assay: NCI-60 anticancer screening (SRB); type: cell-based; conditions: Homo sapiens, leukemia, one dose 10 μM, read-out: Growth Inhibition Percentage (GI %)
[18] = system: MDA-MB-435; assay: NCI-60 anticancer screening (SRB); type: cell-based; conditions: Homo sapiens; MDA-MB-435, melanoma; one dose 10 μM; read-out: Growth Inhibition Percentage (GI %)
[19] = system: HCT-15; assay: NCI-60 anticancer screening (SRB); type: cell-based; conditions: Homo sapiens; HCT-15, colon cancer; one dose 10 μM; read-out: Growth Inhibition Percentage (GI %)
[20] = molecular target: EGFR^T790M (Homo sapiens, UniProt P00533, T790M); assay: biochemical
Sequence of EGFR^T790M (P00533 25-1210 T790M): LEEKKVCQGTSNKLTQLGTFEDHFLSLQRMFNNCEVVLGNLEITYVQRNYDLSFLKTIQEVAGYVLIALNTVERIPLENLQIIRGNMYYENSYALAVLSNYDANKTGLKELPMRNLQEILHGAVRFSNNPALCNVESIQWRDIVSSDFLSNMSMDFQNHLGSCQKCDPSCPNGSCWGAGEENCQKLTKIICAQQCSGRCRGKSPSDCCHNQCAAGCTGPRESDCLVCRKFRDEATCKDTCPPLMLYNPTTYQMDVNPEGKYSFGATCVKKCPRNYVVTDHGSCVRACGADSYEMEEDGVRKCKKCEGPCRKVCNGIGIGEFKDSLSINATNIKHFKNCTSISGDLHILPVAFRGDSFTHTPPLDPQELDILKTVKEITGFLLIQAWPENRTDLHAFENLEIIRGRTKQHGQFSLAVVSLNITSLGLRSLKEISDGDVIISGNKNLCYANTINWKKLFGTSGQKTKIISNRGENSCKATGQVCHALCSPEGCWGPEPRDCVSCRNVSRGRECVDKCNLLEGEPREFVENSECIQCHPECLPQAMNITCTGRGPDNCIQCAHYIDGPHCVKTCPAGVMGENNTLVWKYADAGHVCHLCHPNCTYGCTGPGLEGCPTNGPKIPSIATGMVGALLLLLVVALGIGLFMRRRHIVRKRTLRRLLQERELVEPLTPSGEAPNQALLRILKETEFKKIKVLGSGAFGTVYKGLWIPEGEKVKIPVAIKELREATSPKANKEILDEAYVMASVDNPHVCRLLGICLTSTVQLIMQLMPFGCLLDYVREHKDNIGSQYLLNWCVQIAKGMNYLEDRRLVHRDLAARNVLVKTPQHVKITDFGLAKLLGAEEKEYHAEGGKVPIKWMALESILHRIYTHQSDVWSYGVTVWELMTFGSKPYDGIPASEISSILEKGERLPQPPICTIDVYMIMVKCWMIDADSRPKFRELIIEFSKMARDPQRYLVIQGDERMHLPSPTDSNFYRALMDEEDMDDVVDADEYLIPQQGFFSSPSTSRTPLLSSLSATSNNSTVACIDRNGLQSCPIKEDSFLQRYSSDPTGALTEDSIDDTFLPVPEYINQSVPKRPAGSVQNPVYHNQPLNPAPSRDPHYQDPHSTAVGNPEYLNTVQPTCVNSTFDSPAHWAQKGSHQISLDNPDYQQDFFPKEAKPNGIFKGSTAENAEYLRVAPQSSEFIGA

[21] = system: HT29; assay: NCI-60 anticancer screening (SRB); type: cell-based; conditions: Homo sapiens, HT-29; HT29, colon cancer; one dose 10 μM; read-out: Growth Inhibition Percentage (GI %)
[22] = system: SK-OV-3; assay: NCI-60 anticancer screening (SRB); type: cell-based; conditions: Homo sapiens; SK-OV-3, ovarian cancer; one dose 10 μM; read-out: Growth Inhibition Percentage (GI %)
[23] = system: A549/ATCC; assay: NCI-60 anticancer screening (SRB); type: cell-based; conditions: Homo sapiens; A549/ATCC, NSC lung cancer; one dose 10 μM; read-out: Growth Inhibition Percentage (GI %)
[24] = system: UACC-257; assay: NCI-60 anticancer screening (SRB); type: cell-based; conditions: Homo sapiens; UACC-257, melanoma; one dose 10 μM; read-out: Growth Inhibition Percentage (GI %)
[25] = system: IGROV1; assay: NCI-60 anticancer screening (SRB); type: cell-based; conditions: Homo sapiens, IGROV-1; IGROV1, ovarian cancer; one dose 10 μM; read-out: Growth Inhibition Percentage (GI %)
[26] = system: HCC-2998; assay: NCI-60 anticancer screening (SRB); type: cell-based; conditions: Homo sapiens; HCC-2998, colon cancer; one dose 10 μM; read-out: Growth Inhibition Percentage (GI %)
[27] = system: PC-3; assay: NCI-60 anticancer screening (SRB); type: cell-based; conditions: Homo sapiens; PC-3, prostate cancer; one dose 10 μM; read-out: Growth Inhibition Percentage (GI %)
[28] = system: HOP-62; assay: NCI-60 anticancer screening (SRB); type: cell-based; conditions: Homo sapiens; HOP-62, NSC lung cancer; one dose 10 μM; read-out: Growth Inhibition Percentage (GI %)
[29] = system: ACHN; assay: NCI-60 anticancer screening (SRB); type: cell-based; conditions: Homo sapiens, renal cancer, one dose 10 μM, read-out: Growth Inhibition Percentage (GI %)
[30] = system: SNB-19; assay: NCI-60 anticancer screening (SRB); type: cell-based; conditions: Homo sapiens; SNB-19, CNS cancer; one dose 10 μM; read-out: Growth Inhibition Percentage (GI %)

Compound | GI % mean [1] [%] | inhibition at 10 µM [2] [%] | inhibition at 10 µM [3] [%] | inhibition at 10 µM [4] [%] | inhibition at 10 µM [5] [%] | IC50 [6] [nM] | inhibition at 10 µM [7] [%] | inhibition at 10 µM [8] [%] | inhibition at 10 µM [9] [%] | inhibition at 10 µM [10] [%] | inhibition at 10 µM [11] [%] | inhibition at 10 µM [12] [%] | inhibition at 10 µM [13] [%] | IC50 [14] [nM] | inhibition at 10 µM [15] [%] | inhibition at 10 µM [16] [%] | inhibition at 10 µM [17] [%] | inhibition at 10 µM [18] [%] | inhibition at 10 µM [19] [%] | IC50 [20] [nM] | further results
CCOC(=O)C1=C(N)N(c2ccc(Cl)cc2)C2=C(C(=O)CC(C)(C)C2)C1c1ccc(Cl)cc1 (racemic) [8e, (±)-Ethyl 2-amino-1,4-bis (4-chlorophenyl)-7,7-dimethyl-5-oxo-1,4,5,6,7,8-hexahydroquinoline-3-carboxylate] | 32 | 33 | 26 | 42 | < 10 | 300 ± 120 | < 10 | 38 | 59 | < 10 | 24 | 35 | 90 | 351 ± 2 | 45 | 46 | 52 | 54 | 58 | 693 ± 5 | inhibition at 10 µM [21]: 46%; inhibition at 10 µM [22]: < 10%; inhibition at 10 µM [23]: 62%; inhibition at 10 µM [24]: 56%; inhibition at 10 µM [25]: 12%; inhibition at 10 µM [26]: 11%; inhibition at 10 µM [27]: 58%; inhibition at 10 µM [28]: < 10%; inhibition at 10 µM [29]: 32%; inhibition at 10 µM [30]: 31%
CCOC(=O)C1=C(N)N(c2ccccc2)C2=C(C(=O)CC(C)(C)C2)C1c1cccc(Cl)c1Cl (racemic) [10a, (±)-Ethyl 2-amino-4–(2,3-dichlorophenyl)-7,7-dimethyl-5-oxo-1-phenyl-1,4,5,6,7,8-hexahydroquinoline-3-carboxylate] | 35 | < 10 | 67 | 28 | 12 | 145 ± 30 | 22 | 23 | 39 | 37 | 40 | 47 | 49 | 490 ± 3 | 60 | 22 | 44 | 13 | 34 | 532 ± 4 | inhibition at 10 µM [21]: 27%; inhibition at 10 µM [22]: 18%; inhibition at 10 µM [23]: 39%; inhibition at 10 µM [24]: 15%; inhibition at 10 µM [25]: 16%; inhibition at 10 µM [26]: 13%; inhibition at 10 µM [27]: 65%; inhibition at 10 µM [28]: 59%; inhibition at 10 µM [29]: 42%; inhibition at 10 µM [30]: 58%
CCOC(=O)C1=C(N)N(c2ccc(Cl)cc2)C2=C(C(=O)CC(C)(C)C2)C1c1cccc(Cl)c1Cl (racemic) [10b, (±)-Ethyl 2-amino-1–(4-chorophenyl)-4–(2,3-dichlorophenyl)-7,7-dimethyl-5-oxo-1-phenyl-1,4,5,6,7,8-hexahydroquinoline-3-carboxylate] | 36 | < 10 | 22 | 41 | < 10 | 205 ± 90 | < 10 | 49 | 53 | 35 | 33 | 27 | 73 | 878 ± 6 | 71 | 40 | 66 | 25 | 62 | 954 ± 8 | inhibition at 10 µM [21]: 32%; inhibition at 10 µM [22]: 13%; inhibition at 10 µM [23]: 34%; inhibition at 10 µM [24]: 44%; inhibition at 10 µM [25]: < 10%; inhibition at 10 µM [26]: 18%; inhibition at 10 µM [27]: 76%; inhibition at 10 µM [28]: 16%; inhibition at 10 µM [29]: 54%; inhibition at 10 µM [30]: 22%
